Active and inactive are the calls of the source.
Assays:
[1] = molecular target: Melanin-concentrating hormone receptor 1 (Homo sapiens, UniProt Q99705); experiment: Late-stage fluorescence-based counterscreen for antagonists of the G-protein coupled receptor 7 (GPR7): cell-based dose response assay to identify antagonists of the melanin-concentrating hormone receptor 1 (MCHR1) Set 5.; assay type: functional
[2] = molecular target: T1, Sentrin-specific protease 6 (Homo sapiens, UniProt Q9GZR1); experiment: SAR Analysis of small molecule inhibitors of Sentrin-specific protease 6 (SENP6) using a Luminescent assay. [Related pubchem assays (depositor defined):AID2582, AID2599]; assay type: functional
T1 sequence (Q9GZR1 whole entry): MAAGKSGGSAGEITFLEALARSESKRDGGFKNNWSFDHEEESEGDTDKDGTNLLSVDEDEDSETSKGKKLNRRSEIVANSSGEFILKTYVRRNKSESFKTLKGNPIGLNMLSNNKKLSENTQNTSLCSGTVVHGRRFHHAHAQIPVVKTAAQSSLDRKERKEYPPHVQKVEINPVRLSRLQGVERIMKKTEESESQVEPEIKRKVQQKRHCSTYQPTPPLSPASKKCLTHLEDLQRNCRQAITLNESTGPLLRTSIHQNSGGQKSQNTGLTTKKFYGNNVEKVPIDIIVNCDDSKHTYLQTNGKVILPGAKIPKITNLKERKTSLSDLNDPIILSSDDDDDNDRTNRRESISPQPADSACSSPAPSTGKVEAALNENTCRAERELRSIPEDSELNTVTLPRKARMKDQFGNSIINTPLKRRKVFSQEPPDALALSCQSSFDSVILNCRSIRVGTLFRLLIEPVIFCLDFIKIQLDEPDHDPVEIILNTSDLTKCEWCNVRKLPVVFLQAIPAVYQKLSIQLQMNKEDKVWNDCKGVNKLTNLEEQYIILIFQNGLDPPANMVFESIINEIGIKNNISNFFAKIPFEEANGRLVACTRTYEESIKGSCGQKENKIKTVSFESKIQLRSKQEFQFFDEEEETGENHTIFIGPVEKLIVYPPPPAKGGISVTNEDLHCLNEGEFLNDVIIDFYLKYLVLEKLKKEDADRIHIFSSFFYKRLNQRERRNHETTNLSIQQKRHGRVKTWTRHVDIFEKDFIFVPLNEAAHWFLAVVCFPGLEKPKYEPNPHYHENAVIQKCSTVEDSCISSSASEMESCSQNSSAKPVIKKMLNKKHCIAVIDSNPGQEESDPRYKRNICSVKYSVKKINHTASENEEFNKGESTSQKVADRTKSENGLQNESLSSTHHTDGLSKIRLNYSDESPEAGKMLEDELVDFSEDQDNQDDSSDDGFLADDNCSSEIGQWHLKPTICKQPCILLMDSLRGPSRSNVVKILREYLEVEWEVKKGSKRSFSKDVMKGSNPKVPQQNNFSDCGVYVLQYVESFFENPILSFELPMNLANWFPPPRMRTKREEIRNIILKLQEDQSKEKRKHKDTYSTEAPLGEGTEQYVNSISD

[3] = molecular target: T2, Sentrin-specific protease 8 (Homo sapiens, UniProt Q96LD8); experiment: SENP8 protease inhibitors, SAR follow-up, biochemical, luminescence (AID 504501); assay type: functional
T2 sequence (Q96LD8 whole entry): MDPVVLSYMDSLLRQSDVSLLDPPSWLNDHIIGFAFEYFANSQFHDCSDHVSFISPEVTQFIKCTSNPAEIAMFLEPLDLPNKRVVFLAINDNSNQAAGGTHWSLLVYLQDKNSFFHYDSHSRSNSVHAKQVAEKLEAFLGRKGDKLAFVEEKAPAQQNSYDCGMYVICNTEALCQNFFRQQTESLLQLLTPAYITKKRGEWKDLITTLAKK

Caspase-3 = molecular target: T3, Caspase-3 (Homo sapiens, UniProt P42574); experiment: SAR Analysis of small molecule inhibitors of Sentrin-specific proteases (SENPs) using a Caspase-3 Selectivity assay. [Related pubchem assays (depositor defined):AID2540, AID2599, AID434973, AID489001]; assay type: functional
T3 sequence (P42574 whole entry): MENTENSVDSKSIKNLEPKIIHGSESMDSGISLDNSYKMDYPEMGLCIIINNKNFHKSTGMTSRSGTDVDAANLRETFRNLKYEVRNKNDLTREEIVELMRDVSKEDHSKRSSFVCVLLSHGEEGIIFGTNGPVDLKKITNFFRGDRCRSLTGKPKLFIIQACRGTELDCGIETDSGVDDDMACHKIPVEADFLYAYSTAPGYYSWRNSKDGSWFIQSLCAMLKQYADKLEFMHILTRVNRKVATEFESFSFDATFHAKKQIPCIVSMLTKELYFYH

[4] = molecular target: T4, Sentrin-specific protease 7 (Homo sapiens, UniProt Q9BQF6); experiment: SENP7 protease inhibitors, SAR follow-up, biochemical, luminescence (AID 504497); assay type: functional
T4 sequence (Q9BQF6 whole entry): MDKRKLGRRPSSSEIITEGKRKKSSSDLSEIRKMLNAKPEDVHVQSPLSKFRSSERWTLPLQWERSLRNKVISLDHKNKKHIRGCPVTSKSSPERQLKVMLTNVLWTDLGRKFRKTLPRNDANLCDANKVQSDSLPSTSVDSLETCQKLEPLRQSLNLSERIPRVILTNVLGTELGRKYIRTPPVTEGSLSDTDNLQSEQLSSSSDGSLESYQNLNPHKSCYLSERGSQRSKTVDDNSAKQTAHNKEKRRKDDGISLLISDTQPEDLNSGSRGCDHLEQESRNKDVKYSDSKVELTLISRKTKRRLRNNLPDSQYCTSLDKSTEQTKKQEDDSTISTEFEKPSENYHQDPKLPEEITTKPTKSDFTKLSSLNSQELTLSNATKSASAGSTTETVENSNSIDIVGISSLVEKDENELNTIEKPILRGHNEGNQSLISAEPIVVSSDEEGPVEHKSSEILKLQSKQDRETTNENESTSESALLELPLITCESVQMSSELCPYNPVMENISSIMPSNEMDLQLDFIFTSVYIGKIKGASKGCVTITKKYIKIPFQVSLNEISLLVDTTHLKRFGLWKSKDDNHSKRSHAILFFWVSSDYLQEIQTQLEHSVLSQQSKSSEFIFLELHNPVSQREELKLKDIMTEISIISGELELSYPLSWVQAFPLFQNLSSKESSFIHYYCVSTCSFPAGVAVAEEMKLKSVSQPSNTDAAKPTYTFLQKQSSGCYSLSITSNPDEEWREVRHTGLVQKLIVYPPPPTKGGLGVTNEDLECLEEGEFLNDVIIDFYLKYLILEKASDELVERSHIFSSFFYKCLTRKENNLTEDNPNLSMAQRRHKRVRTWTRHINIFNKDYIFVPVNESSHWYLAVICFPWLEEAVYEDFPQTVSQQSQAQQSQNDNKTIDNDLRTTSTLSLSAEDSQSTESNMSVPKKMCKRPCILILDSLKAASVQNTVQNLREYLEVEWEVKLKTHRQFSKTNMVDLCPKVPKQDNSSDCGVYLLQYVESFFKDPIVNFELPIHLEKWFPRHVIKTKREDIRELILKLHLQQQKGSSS

[5] = molecular target: Serine/threonine-protein phosphatase (Homo sapiens, UniProt Q9BPW0); experiment: PP5 phosphatase inhibitors, dose response, biochemical, fluorescence (AID 2395)
Serine/threonine-protein phosphatase, sequence (Q9BPW0 whole entry): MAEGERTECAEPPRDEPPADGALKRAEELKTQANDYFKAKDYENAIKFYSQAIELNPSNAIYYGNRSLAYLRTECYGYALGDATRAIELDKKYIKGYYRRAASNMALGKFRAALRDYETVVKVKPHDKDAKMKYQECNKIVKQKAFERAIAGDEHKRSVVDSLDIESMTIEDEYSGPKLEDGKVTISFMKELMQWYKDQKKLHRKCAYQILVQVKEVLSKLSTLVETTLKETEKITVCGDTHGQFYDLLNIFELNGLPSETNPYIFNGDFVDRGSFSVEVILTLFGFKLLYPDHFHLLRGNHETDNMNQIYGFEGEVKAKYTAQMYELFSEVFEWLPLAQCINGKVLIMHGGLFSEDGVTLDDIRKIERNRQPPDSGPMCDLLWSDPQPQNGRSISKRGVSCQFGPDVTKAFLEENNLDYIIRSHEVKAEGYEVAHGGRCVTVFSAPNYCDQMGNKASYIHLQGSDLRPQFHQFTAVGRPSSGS

[6] = molecular target: T5, Apoptotic protease-activating factor 1 (Homo sapiens, UniProt O14727); assay type: functional
T5 sequence (O14727 whole entry): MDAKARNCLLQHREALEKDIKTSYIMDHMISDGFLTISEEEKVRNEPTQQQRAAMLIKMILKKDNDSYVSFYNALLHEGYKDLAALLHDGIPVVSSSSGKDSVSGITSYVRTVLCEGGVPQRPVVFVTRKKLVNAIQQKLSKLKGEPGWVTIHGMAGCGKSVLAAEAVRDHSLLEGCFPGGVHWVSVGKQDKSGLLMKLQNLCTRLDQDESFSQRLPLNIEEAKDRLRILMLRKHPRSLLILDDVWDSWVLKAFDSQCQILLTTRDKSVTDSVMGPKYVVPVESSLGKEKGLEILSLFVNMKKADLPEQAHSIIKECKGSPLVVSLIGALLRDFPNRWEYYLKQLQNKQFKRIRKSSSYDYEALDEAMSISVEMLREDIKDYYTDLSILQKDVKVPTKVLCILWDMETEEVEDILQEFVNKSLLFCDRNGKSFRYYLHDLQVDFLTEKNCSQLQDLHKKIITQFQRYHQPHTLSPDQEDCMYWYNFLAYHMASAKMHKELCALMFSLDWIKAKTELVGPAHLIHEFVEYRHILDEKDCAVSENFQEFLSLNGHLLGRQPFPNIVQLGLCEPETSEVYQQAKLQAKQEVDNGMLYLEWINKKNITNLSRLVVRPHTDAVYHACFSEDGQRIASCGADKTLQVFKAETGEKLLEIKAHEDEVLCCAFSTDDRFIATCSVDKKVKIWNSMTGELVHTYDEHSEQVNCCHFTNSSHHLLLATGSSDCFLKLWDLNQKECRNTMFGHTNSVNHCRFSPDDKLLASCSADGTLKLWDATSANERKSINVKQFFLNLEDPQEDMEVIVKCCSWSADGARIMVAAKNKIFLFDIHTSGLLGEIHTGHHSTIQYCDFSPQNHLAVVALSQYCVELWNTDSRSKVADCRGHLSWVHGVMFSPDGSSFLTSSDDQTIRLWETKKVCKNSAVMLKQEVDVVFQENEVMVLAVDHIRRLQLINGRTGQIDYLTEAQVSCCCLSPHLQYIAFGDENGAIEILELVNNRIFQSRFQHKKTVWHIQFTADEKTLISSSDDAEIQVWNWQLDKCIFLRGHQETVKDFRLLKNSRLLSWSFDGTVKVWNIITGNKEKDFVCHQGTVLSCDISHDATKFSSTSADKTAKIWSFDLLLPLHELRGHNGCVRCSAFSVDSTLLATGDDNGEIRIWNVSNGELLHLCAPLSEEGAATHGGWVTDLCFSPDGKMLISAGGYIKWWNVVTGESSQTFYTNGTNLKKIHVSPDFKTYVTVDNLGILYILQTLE

Caspase-6 = molecular target: T6, Caspase-6 (Homo sapiens, UniProt P55212); experiment: human caspase-6 inhibitors, dose response, biochemical, VEID-R110 fluorescence, cherry-pick (AID 720632)
T6 sequence (P55212 whole entry): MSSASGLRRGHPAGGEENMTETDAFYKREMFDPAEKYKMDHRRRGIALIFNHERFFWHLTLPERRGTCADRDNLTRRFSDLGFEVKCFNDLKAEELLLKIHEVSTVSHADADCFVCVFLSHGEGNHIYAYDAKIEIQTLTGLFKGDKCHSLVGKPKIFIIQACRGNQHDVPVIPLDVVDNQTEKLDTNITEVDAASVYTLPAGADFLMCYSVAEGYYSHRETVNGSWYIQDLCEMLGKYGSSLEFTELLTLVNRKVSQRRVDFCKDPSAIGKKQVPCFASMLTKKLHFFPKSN

[7] = molecular target: Serine/threonine-protein phosphatase PP1-alpha catalytic subunit (Homo sapiens, UniProt P62136); experiment: PP1 phosphatase inhibitors, dose response, biochemical, fluorescence (AID 2394)
Serine/threonine-protein phosphatase PP1-alpha catalytic subunit, sequence (P62136 whole entry): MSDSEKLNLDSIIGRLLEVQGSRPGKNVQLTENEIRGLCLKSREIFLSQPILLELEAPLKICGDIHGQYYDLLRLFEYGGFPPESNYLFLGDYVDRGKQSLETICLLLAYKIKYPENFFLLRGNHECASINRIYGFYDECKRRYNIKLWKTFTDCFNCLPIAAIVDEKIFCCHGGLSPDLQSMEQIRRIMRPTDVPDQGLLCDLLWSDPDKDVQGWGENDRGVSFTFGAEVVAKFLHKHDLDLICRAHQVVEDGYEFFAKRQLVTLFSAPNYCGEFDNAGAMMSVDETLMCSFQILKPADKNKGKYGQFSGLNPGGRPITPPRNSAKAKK

Insulin-degrading enzyme [8] = molecular target: T7, Insulin-degrading enzyme (Homo sapiens, UniProt P14735); experiment: activators of endogenous IDE in HEK cells, dose response, cell-based, fluorescence polarization (AID 588439); assay type: functional
T7 sequence (P14735 whole entry): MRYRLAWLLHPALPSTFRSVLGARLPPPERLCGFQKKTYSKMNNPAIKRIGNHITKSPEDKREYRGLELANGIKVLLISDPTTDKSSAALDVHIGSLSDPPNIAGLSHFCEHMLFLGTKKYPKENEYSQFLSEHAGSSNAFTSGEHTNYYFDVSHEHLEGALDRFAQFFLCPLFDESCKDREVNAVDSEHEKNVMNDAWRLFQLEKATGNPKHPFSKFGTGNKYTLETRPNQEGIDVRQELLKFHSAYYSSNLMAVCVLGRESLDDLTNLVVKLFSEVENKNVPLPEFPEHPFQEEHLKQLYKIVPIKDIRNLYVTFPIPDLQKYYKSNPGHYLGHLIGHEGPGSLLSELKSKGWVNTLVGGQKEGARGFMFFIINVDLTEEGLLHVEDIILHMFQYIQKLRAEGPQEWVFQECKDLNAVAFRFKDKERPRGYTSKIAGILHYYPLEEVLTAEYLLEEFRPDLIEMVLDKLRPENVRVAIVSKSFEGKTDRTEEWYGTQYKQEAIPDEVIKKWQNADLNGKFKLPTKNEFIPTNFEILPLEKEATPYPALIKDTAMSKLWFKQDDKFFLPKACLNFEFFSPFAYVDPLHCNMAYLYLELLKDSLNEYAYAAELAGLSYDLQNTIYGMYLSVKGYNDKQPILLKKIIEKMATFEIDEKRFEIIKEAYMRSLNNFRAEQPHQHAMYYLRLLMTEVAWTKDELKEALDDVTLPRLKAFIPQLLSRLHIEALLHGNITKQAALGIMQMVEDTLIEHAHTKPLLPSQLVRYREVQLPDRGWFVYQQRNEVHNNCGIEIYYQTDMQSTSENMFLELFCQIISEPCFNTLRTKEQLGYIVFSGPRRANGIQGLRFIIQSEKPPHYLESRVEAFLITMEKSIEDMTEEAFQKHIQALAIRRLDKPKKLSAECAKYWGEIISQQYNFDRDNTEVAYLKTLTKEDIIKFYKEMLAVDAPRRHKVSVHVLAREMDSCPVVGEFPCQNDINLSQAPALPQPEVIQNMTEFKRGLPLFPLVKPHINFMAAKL

HEK293 [9] = experiment: optical interference in Abeta FP readout, dose response, artefact control for IDE activator project, biochemical, fluorescence polarization (AID 588442); assay type: functional, cell-based; conditions: Homo sapiens
Insulin-degrading enzyme [10] = molecular target: T7, Insulin-degrading enzyme; experiment: activators of recombinant IDE enzyme, dose response, counter-screen for IDE activator project, biochemical, fluorescence polarization (AID 588681)
HEK293 [11] = experiment: HEK cell cytotoxicity by LDH release, dose response, cytotoxicity control for IDE activator project, fluorescence, HEK cells (AID 588440); assay type: functional, cell-based; conditions: Homo sapiens;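 also: cytotoxicity by LDH release measuring loss of membrane integrity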

Melanin-concentrating hormone receptor 1, sequence (Q99705 whole entry): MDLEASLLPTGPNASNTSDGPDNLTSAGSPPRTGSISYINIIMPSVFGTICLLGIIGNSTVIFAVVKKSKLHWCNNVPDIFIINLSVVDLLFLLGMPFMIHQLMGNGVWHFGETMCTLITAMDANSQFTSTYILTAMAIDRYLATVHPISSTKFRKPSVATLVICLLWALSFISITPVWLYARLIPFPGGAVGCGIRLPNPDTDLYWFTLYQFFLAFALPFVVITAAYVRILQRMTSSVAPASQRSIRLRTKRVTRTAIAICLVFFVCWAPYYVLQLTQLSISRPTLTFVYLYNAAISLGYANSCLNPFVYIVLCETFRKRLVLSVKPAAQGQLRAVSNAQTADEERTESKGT

## COc1ccc(Oc2c(Cl)cnn(Cc3ccccc3C(C)C)c2=O)cc1
[1]
  IC50: 1.95 µM (active)

## Fc1ccc(N/N=C/c2cn(Cc3ccccc3)c3ccccc23)cc1
[2]
  IC50: > 99 µM (inactive)
[3]
  IC50: > 99 µM (inactive)
Caspase-3
  IC50: > 99 µM (inactive)
[4]
  IC50: > 99 µM (inactive)

## COC(=O)CCC(=O)OC1(C)C(=O)C=C2C=C(C3CC3)N(CCCCO)C=C2C1=O (stereo not drawn)
[5]
  IC50: 11.8 µM (not active)
[6]
  IC50: 19.4 µM (active)
Caspase-6
  AC50: 8.77 µM (active)
[7]
  IC50: 57.6 µM (not active)

## O=C1c2ccccc2C(Nc2ccc3[nH]c(-c4cccnc4)nc3c2)N1Cc1ccco1 (stereo not drawn)
Insulin-degrading enzyme [8]
  EC50: > 54.6 µM (inactive)
HEK293 [9]
  EC50: > 55.9 µM (inactive)
Insulin-degrading enzyme [10]
  EC50: > 54.6 µM (inactive)
HEK293 [11]
  IC50: > 89.1 µM (inactive)
